# Laboratory results taken from patent US20260242372A1, “NOVEL IMIDAZOPYRIDINE AND PYRAZOLOPYRIDINE SULFONAMIDE DERIVATIVES” (Hoffmann-La Roche Inc., priority 2022, published 2026).
# Biological target: human GPR17 short isoform (Homo sapiens, UniProt Q13304)
# Experiment: GPR17 cAMP assay (hGPR17 cAMP, TR-FRET, antagonist mode)
# Type: cell-based
# Conditions: CHO-K1 cells stably expressing human GPR17 short isoform; EC80 of agonist MDL29,951; forskolin 15 μM; 30 min at room temperature
# Chain of human GPR17 short isoform (Q13304 29-367): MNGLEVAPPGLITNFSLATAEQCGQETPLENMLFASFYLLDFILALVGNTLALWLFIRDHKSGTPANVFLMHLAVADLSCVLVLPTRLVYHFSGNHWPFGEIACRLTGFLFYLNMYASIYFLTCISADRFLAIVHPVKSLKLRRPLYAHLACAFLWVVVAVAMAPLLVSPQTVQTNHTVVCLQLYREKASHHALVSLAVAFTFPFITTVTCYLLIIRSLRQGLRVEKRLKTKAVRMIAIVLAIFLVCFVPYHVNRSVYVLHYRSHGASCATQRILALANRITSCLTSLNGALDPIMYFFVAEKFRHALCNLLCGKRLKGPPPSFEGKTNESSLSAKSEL
row,IC50 [nM],Compound
1,217,"COc1nc(OCC(F)F)c(F)cc1NS(=O)(=O)c1cnc2n1CCCC2 [Example 63, N-[6-(2,2-difluoroethoxy)-5-fluoro-2-methoxy-3-pyridyl]-5,6,7,8-tetrahydroimidazo[1,2-a]pyridine-3-sulfonamide]"
2,251,"N#CCc1cc(F)c(NS(=O)(=O)c2cnc3cc(Cl)ccn23)cc1F [Example 64, 7-chloro-N-(4-(cyanomethyl)-2,5-difluorophenyl)imidazo[1,2-a]pyridine-3-sulfonamide]"
3,270,"COc1nc(OCC(F)F)c(F)cc1NS(=O)(=O)c1cnc2c(C#N)c(OC(F)F)ccn12 [Example 65, 8-cyano-N-[6-(2,2-difluoroethoxy)-5-fluoro-2-methoxy-3-pyridyl]-7-(difluoromethoxy)imidazo[1,2-a]pyridine-3-sulfonamide]"
4,289,"Cc1ccn2c(S(=O)(=O)Nc3cc(F)c(OC(F)F)nc3OC(F)F)cnc2c1C#N [Example 66, N-[2,6-bis(difluoromethoxy)-5-fluoro-3-pyridyl]-8-cyano-7-methyl-imidazo[1,2-a]pyridine-3-sulfonamide]"
5,301,"Cc1ccn2c(S(=O)(=O)Nc3cc(F)c(CC#N)cc3F)cnc2c1C#N [Example 67, 8-cyano-N-[4-(cyanomethyl)-2,5-difluoro-phenyl]-7-methyl-imidazo[1,2-a]pyridine-3-sulfonamide]"
6,329,"N#CCc1cc(F)c(NS(=O)(=O)c2cnc3c(F)c(Cl)ccn23)cc1F [Example 68, 7-chloro-N-[4-(cyanomethyl)-2,5-difluoro-phenyl]-8-fluoro-imidazo[1,2-a]pyridine-3-sulfonamide]"
7,393,"COc1nc(OCC(F)F)c(F)cc1NS(=O)(=O)c1cnc2c(C#N)cccn12 [Example 69, 8-cyano-N-[6-(2,2-difluoroethoxy)-5-fluoro-2-methoxy-3-pyridyl]imidazo[1,2-a]pyridine-3-sulfonamide]"
8,407,"COc1nc(C2COC2)c(F)cc1NS(=O)(=O)c1cnc2cc(Cl)ccn12 [Example 70, 7-chloro-N-[5-fluoro-2-methoxy-6-(oxetan-3-yl)-3-pyridyl]imidazo[1,2-a]pyridine-3-sulfonamide]"
9,413,"COc1nc(OCC(F)F)c(F)cc1NS(=O)(=O)c1cnc2c(C)cccn12 [Example 71, N-[6-(2,2-difluoroethoxy)-5-fluoro-2-methoxy-3-pyridyl]-8-methyl-imidazo[1,2-a]pyridine-3-sulfonamide]"
10,449,"COc1nc(OCC(F)F)c(F)cc1NS(=O)(=O)c1cnc2n1CC(C)C2 (centres unmarked) [Example 72, N-[6-(2,2-difluoroethoxy)-5-fluoro-2-methoxy-3-pyridyl]-6-methyl-6,7-dihydro-5H-pyrrol[1,2-a]imidazole-3-sulfonamide]"
11,876,"COc1ccn2c(S(=O)(=O)Nc3cc(F)c(CC#N)cc3F)cnc2n1 [Example 73, N-[4-(cyanomethyl)-2,5-difluoro-phenyl]-7-methoxy-imidazo[1,2-a]pyrimidine-3-sulfonamide]"
12,897,"COc1nc(NS(=O)(=O)c2cnc3cc(Cl)ccn23)ncc1OCCF [Example 74, 7-chloro-N-[5-(2-fluoroethoxy)-4-methoxy-pyrimidin-2-yl]imidazo[1,2-a]pyridine-3-sulfonamide]"
13,974,"COc1nc(OCC(F)F)c(F)cc1NS(=O)(=O)c1cnc2n1CCC2C (centres unmarked) [Example 75, N-[6-(2,2-difluoroethoxy)-5-fluoro-2-methoxy-3-pyridyl]-7-methyl-6,7-dihydro-5H-pyrrol[1,2-a]imidazole-3-sulfonamide]"
14,1030,"Cc1ccn2c(S(=O)(=O)Nc3cc(F)c(CC#N)cc3F)cnc2n1 [Example 76, N-[4-(cyanomethyl)-2,5-difluoro-phenyl]-7-methyl-imidazo[1,2-a]pyrimidine-3-sulfonamide]"
15,6,"COc1nc(CC#N)c(F)cc1NS(=O)(=O)c1cnn2cc(Br)ccc12 [Example 77, 6-bromo-N-[6-(cyanomethyl)-5-fluoro-2-methoxy-3-pyridyl]pyrazolo[1,5-a]pyridine-3-sulfonamide]"
16,10,"COc1nc(OCC(F)F)c(F)cc1NS(=O)(=O)c1cnn2cc(Br)ccc12 [Example 78, 6-bromo-N-[6-(2,2-difluoroethoxy)-5-fluoro-2-methoxy-3-pyridyl]pyrazolo[1,5-a]pyridine-3-sulfonamide]"
17,20,"COc1nc(NS(=O)(=O)c2cnn3cc(Br)ccc23)c(F)cc1CC#N [Example 79, 6-bromo-N-[5-(cyanomethyl)-3-fluoro-6-methoxy-2-pyridyl]pyrazolo[1,5-a]pyridine-3-sulfonamide]"
18,26,"COc1nc(NS(=O)(=O)c2cnn3cc(Br)ccc23)c(F)cc1OCCF [Example 80, 6-bromo-N-[3-fluoro-5-(2-fluoroethoxy)-6-methoxy-2-pyridyl]pyrazolo[1,5-a]pyridine-3-sulfonamide]"
19,49,"COc1nc(NS(=O)(=O)c2cnn3cc(Br)ccc23)c(F)cc1OCC(F)F [Example 81, 6-bromo-N-[5-(2,2-difluoroethoxy)-3-fluoro-6-methoxy-2-pyridyl]pyrazolo[1,5-a]pyridine-3-sulfonamide]"

row,IC50 [nM],Compound
1,100,"COc1nc(C2CC2)c(F)cc1NS(=O)(=O)c1cnn2cc(Br)ccc12 [Example 82, 6-bromo-N-(6-cyclopropyl-5-fluoro-2-methoxy-3-pyridyl)pyrazolo[1,5-a]pyridine-3-sulfonamide]"
2,100,"COc1nc(OCC(F)F)c(F)cc1NS(=O)(=O)c1cnn2c1CCC(C)C2 (centres unmarked) [Example 83, N-[6-(2,2-difluoroethoxy)-5-fluoro-2-methoxy-3-pyridyl]-6-methyl-4,5,6,7-tetrahydropyrazolo[1,5-a]pyridine-3-sulfonamide]"
3,130,"COc1nc(OCC(F)F)c(F)cc1NS(=O)(=O)c1cnn2c(C#N)c(C)ccc12 [Example 84, 7-cyano-N-[6-(2,2-difluoroethoxy)-5-fluoro-2-methoxy-3-pyridyl]-6-methyl-pyrazolo[1,5-a]pyridine-3-sulfonamide]"
4,251,"O=S(=O)(Nc1cc(F)c(OC(F)F)cc1F)c1cnn2cc(Br)ccc12 [Example 85, 6-bromo-N-[4-(difluoromethoxy)-2,5-difluoro-phenyl]pyrazolo[1,5-a]pyridine-3-sulfonamide]"
5,367,"COc1nc(C2COC2)c(F)cc1NS(=O)(=O)c1cnn2cc(Br)ccc12 [Example 87, 6-bromo-N-[5-fluoro-2-methoxy-6-(oxetan-3-yl)-3-pyridyl]pyrazolo[1,5-a]pyridine-3-sulfonamide]"
6,692,"COc1nc(OCC(F)F)c(F)cc1NS(=O)(=O)c1cnn2c1COC(C)C2 (centres unmarked) [Example 88, N-[6-(2,2-difluoroethoxy)-5-fluoro-2-methoxy-3-pyridyl]-6-methyl-6,7-dihydro-4H-pyrazolo[5,1-c][1,4]oxazine-3-sulfonamide]"
7,139,"COc1nc(NS(=O)(=O)c2cnc3cc(Cl)ccn23)nc(OC)c1OCCF [Example 89, 7-chloro-N-[5-(2-fluoroethoxy)-4,6-dimethoxy-pyrimidin-2-yl]imidazo[1,2-a]pyridine-3-sulfonamide]"
8,115,"COc1nc(NS(=O)(=O)c2cnc3cc(Cl)ccn23)nc(OC)c1OCC(F)F [Example 90, 7-chloro-N-[5-(2,2-difluoroethoxy)-4,6-dimethoxy-pyrimidin-2-yl]imidazo[1,2-a]pyridine-3-sulfonamide]"
9,211,"COc1nc(NS(=O)(=O)c2cnc3cc(Br)ccn23)ncc1OCCF [Example 91, 7-bromo-N-[5-(2-fluoroethoxy)-4-methoxy-pyrimidin-2-yl]imidazo[1,2-a]pyridine-3-sulfonamide]"
10,115,"N#CCc1cc(F)c(NS(=O)(=O)c2cnn3cc(Br)ccc23)cc1F [Example 92, 6-bromo-N-[4-(cyanomethyl)-2,5-difluoro-phenyl]pyrazolo[1,5-a]pyridine-3-sulfonamide]"
11,4,"COc1cc(CC#N)c(F)cc1NS(=O)(=O)c1cnc2cc(C3CC3)ccn12 [Example 93, N-[4-(cyanomethyl)-5-fluoro-2-methoxy-phenyl]-7-cyclopropyl-imidazo[1,2-a]pyridine-3-sulfonamide]"
12,9,"COc1nc(OCC(F)F)c(F)cc1NS(=O)(=O)c1cnc2cc(C3CC3)ccn12 [Example 94, 7-cyclopropyl-N-[6-(2,2-difluoroethoxy)-5-fluoro-2-methoxy-3-pyridyl]imidazo[1,2-a]pyridine-3-sulfonamide]"
13,13,"COc1nc(OC(F)F)c(F)cc1NS(=O)(=O)c1cnc2cc(C3CC3)ccn12 [Example 95, 7-cyclopropyl-N-[6-(difluoromethoxy)-5-fluoro-2-methoxy-3-pyridyl]imidazo[1,2-a]pyridine-3-sulfonamide]"
14,38,"COc1nc(NS(=O)(=O)c2cnc3cc(C4CC4)ccn23)c(F)cc1CC#N [Example 96, N-[5-(cyanomethyl)-3-fluoro-6-methoxy-2-pyridyl]-7-cyclopropyl-imidazo[1,2-a]pyridine-3-sulfonamide]"
15,23,"COc1nc(NS(=O)(=O)c2cnc3nc(C4CC4)ccn23)c(F)cc1OC(F)F [Example 97, 7-cyclopropyl-N-[5-(difluoromethoxy)-3-fluoro-6-methoxy-2-pyridyl]imidazo[1,2-a]pyrimidine-3-sulfonamide]"
16,819,"COc1c(C)ccn2c(S(=O)(=O)Nc3cc(F)c(C#N)cc3F)cnc12 [Example 98, N-(4-cyano-2,5-difluoro-phenyl)-8-methoxy-7-methyl-imidazo[1,2-a]pyridine-3-sulfonamide]"
17,8,"COc1nc(NS(=O)(=O)c2cnn3cc(Br)ccc23)c(F)cc1OC(F)F [Example 99, 6-bromo-N-[5-(difluoromethoxy)-3-fluoro-6-methoxy-2-pyridyl]pyrazolo[1,5-a]pyridine-3-sulfonamide]"
18,37,"COc1nc(OCC(F)F)c(F)cc1NS(=O)(=O)c1cnc2cc(C3COC3)ccn12 [Example 100, N-[6-(2,2-difluoroethoxy)-5-fluoro-2-methoxy-3-pyridyl]-7-(oxetan-3-yl)imidazo[1,2-a]pyridine-3-sulfonamide]"
19,179,"COc1cc(CC#N)c(F)cc1NS(=O)(=O)c1cnc2cc(C3COC3)ccn12 [Example 101, N-[4-(cyanomethyl)-5-fluoro-2-methoxy-phenyl]-7-(oxetan-3-yl)imidazo[1,2-a]pyridine-3-sulfonamide]"
